According to ChEMBL document CHEMBL3112479, “Synthesis and evaluation of the antimicrobial activities of 3-((5-phenyl-1,3,4-oxadiazol-2-yl)methyl)-2-thioxothiazolidin-4-one derivatives” (2014):
Values after ≈ are worked out from the molar mass of the structure shown.

Key:
Salmonella typhimurium [1] = assay: Antimicrobial activity against Salmonella typhimurium 2421 after 20 hrs by two-fold serial dilution technique; type: functional, Salmonella enterica subsp. enterica serovar Typhimurium; conditions: Salmonella enterica, 2421, 20 h
Staphylococcus aureus [2] = assay: Antimicrobial activity against quinolone-resistant Staphylococcus aureus clinical isolate 3505 after 20 hrs by two-fold serial dilution technique; type: functional; conditions: isolate 3505, 20 h
Staphylococcus aureus [3] = assay: Antimicrobial activity against Staphylococcus aureus RN4220 after 20 hrs by two-fold serial dilution technique; type: functional; conditions: RN4220, 20 h
Escherichia coli [4] = assay: Antimicrobial activity against Escherichia coli KCTC 1924 after 20 hrs by two-fold serial dilution technique; type: functional; conditions: KCTC 1924, 20 h
Escherichia coli [5] = assay: Antimicrobial activity against Escherichia coli CCARM 1356 after 20 hrs by two-fold serial dilution technique; type: functional; conditions: CCARM 1356, 20 h
Pseudomonas aeruginosa [6] = assay: Antimicrobial activity against Pseudomonas aeruginosa 2004 after 20 hrs by two-fold serial dilution technique; type: functional; conditions: Pseudomonas aeruginosa, 2004, 20 h
Staphylococcus aureus [7] = assay: Antimicrobial activity against Staphylococcus aureus 209 after 20 hrs by two-fold serial dilution technique; type: functional; conditions: Staphylococcus aureus, 209, 20 h
Staphylococcus aureus [8] = assay: Antimicrobial activity against Staphylococcus aureus 503 after 20 hrs by two-fold serial dilution technique; type: functional; conditions: Staphylococcus aureus, 503, 20 h
Pseudomonas aeruginosa [9] = assay: Antimicrobial activity against Pseudomonas aeruginosa 2742 after 20 hrs by two-fold serial dilution technique; type: functional; conditions: Pseudomonas aeruginosa, 2742, 20 h
Staphylococcus aureus [10] = assay: Antimicrobial activity against quinolone-resistant Staphylococcus aureus clinical isolate 3519 after 20 hrs by two-fold serial dilution technique; type: functional; conditions: isolate 3519, 20 h
Salmonella typhimurium [11] = assay: Antimicrobial activity against Salmonella typhimurium 1926 after 20 hrs by two-fold serial dilution technique; type: functional, Salmonella enterica subsp. enterica serovar Typhimurium; conditions: Salmonella enterica, 1926, 20 h
Candida albicans = assay: Antimicrobial activity against Candida albicans 7535 after 20 hrs by two-fold serial dilution technique; type: functional; conditions: Candida albicans, 7535, 20 h
Streptococcus mutans = assay: Antimicrobial activity against Streptococcus mutans 3065 after 20 hrs by two-fold serial dilution technique; type: functional; conditions: Streptococcus mutans, 3065, 20 h
Staphylococcus aureus [12] = assay: Antimicrobial activity against methicillin-resistant Staphylococcus aureus clinical isolate 3167 after 20 hrs by two-fold serial dilution technique; type: functional; conditions: isolate 3167, 20 h
Staphylococcus aureus [13] = assay: Antimicrobial activity against methicillin-resistant Staphylococcus aureus clinical isolate 3506 after 20 hrs by two-fold serial dilution technique; type: functional; conditions: isolate 3506, 20 h

SMILES	MIC (Salmonella typhimurium [1]) [µg/mL]	MIC (Staphylococcus aureus [2]) [µg/mL]	MIC (Staphylococcus aureus [3]) [µg/mL]	MIC (Escherichia coli [4]) [µg/mL]	MIC (Escherichia coli [5]) [µg/mL]	MIC (Pseudomonas aeruginosa [6]) [µg/mL]	MIC (Staphylococcus aureus [7]) [µg/mL]	MIC (Staphylococcus aureus [8]) [µg/mL]	MIC (Pseudomonas aeruginosa [9]) [µg/mL]	MIC (Staphylococcus aureus [10]) [µg/mL]	MIC (Salmonella typhimurium [11]) [µg/mL]	MIC (Candida albicans) [µg/mL]	MIC (Streptococcus mutans) [µg/mL]	MIC (Staphylococcus aureus [12]) [µg/mL]	MIC (Staphylococcus aureus [13]) [µg/mL]
Cc1cccc(-c2nnc(CN3C(=O)/C(=C/c4ccc(C(=O)O)cc4)SC3=S)o2)c1	> 128	32 (≈ 73.1 µM)	16 (≈ 36.6 µM)	> 128	> 128	> 128	32 (≈ 73.1 µM)	32 (≈ 73.1 µM)	> 128	32 (≈ 73.1 µM)	> 128	> 64	16 (≈ 36.6 µM)	32 (≈ 73.1 µM)	32 (≈ 73.1 µM)
Cc1cccc(-c2nnc([C@H](Cc3ccccc3)N3C(=O)CSC3=S)o2)c1	> 128	8 (≈ 20.2 µM)	8 (≈ 20.2 µM)	> 128	> 128	> 128	> 64	> 64	> 128	8 (≈ 20.2 µM)	> 128	> 64	4 (≈ 10.1 µM)	8 (≈ 20.2 µM)	8 (≈ 20.2 µM)
O=C(O)c1ccc(/C=C2\SC(=S)N(Cc3nnc(-c4cccc(Br)c4)o3)C2=O)cc1	> 128	16 (≈ 31.8 µM)	16 (≈ 31.8 µM)	> 128	> 128	> 128	16 (≈ 31.8 µM)	16 (≈ 31.8 µM)	> 128	16 (≈ 31.8 µM)	> 128	> 64	16 (≈ 31.8 µM)	8 (≈ 15.9 µM)	16 (≈ 31.8 µM)
